Organism: Rattus norvegicus
Test: DrugMatrix - Regimen: Daily Repeat
Assay type: toxicity, organism-based, Sprague-Dawley
Set-up: regimen Daily Repeat, gender Male, age 6-8 weeks
Details: in vivo, po, route oral GAVAGE, vehicle 100 % WATER; for ABSOLUTE BASOPHIL / ABSOLUTE EOSINOPHIL / ABSOLUTE LYMPHOCYTE / ABSOLUTE MONOCYTE / ABSOLUTE SEGMENTED NEUTROPHIL / BASOPHIL / EOSINOPHIL / ERYTHROCYTE COUNT / HEMATOCRIT / HEMOGLOBIN / LEUKOCYTE COUNT / LYMPHOCYTE / MEAN CORPUSCULAR HEMOGLOBIN / MEAN CORPUSCULAR HEMOGLOBIN CONCENTRATION / MONOCYTE / NEUTROPHIL / NUCLEATED RED BLOOD CELLS / PLATELET COUNT: tissue Blood; for ALANINE AMINOTRANSFERASE / ALBUMIN / ALKALINE PHOSPHATASE / ASPARTATE AMINOTRANSFERASE / BLOOD UREA NITROGEN / CARBON DIOXIDE / CHLORIDE / CHOLESTEROL / CREATINE PHOSPHOKINASE / CREATININE / GLUCOSE / LACTATE DEHYDROGENASE / LIPASE / PHOSPHORUS / POTASSIUM / SODIUM / TOTAL BILIRUBIN / TOTAL PROTEIN / URIC ACID: tissue Plasma
[1] = 0 mg/kg, 72 h, dose level Control, time 3 day
[2] = 0 mg/kg, 120 h, dose level Control, time 5 day
[3] = 35 mg/kg, 72 h, dose level Low, time 3 day

Which results are given for `Nc1ccn([C@@H]2CS[C@H](CO)O2)c(=O)n1` [LAMIVUDINE]?
ABSOLUTE BASOPHIL [1]: 0 CELLS/uL; ABSOLUTE EOSINOPHIL [1]: 0 CELLS/uL; ABSOLUTE LYMPHOCYTE [1]: 8482.5 CELLS/uL; ABSOLUTE MONOCYTE [1]: 63.83 CELLS/uL; ABSOLUTE SEGMENTED NEUTROPHIL [1]: 887 CELLS/uL; BASOPHIL [1]: 0%; EOSINOPHIL [1]: 0%; ERYTHROCYTE COUNT [1]: 5.49 x10E6/uL; HEMATOCRIT [1]: 34.5%; HEMOGLOBIN [1]: 13.33 G/DL; LEUKOCYTE COUNT [1]: 9.43 x10E3/uL; LYMPHOCYTE [1]: 90.17%; MEAN CORPUSCULAR HEMOGLOBIN [1]: 24.3 pg; MEAN CORPUSCULAR HEMOGLOBIN CONCENTRATION [1]: 38.63 G/DL; MONOCYTE [1]: 0.67%; NEUTROPHIL [1]: 9.17%; NUCLEATED RED BLOOD CELLS [1]: 0.67 /100WBC; PLATELET COUNT [1]: 1022.83 x10E3/uL; ALANINE AMINOTRANSFERASE [1]: 50.5 u/L; ALBUMIN [1]: 4.08 G/DL; ALKALINE PHOSPHATASE [1]: 368.33 u/L; ASPARTATE AMINOTRANSFERASE [1]: 87.5 u/L; BLOOD UREA NITROGEN [1]: 12.83 mg/dL; CARBON DIOXIDE [1]: 32.83 mmol/L; CHLORIDE [1]: 99.67 MEQ/L; CHOLESTEROL [1]: 79.67 mg/dL; CREATINE PHOSPHOKINASE [1]: 585 u/L; CREATININE [1]: 0.22 mg/dL; GLUCOSE [1]: 135.67 mg/dL; LACTATE DEHYDROGENASE [1]: 171 u/L; LIPASE [1]: 9.5 u/L; PHOSPHORUS [1]: 11.18 mg/dL; POTASSIUM [1]: 6.25 MEQ/L; SODIUM [1]: 144.87 MEQ/L; TOTAL BILIRUBIN [1]: 0.2 mg/dL; TOTAL PROTEIN [1]: 6.08 G/DL; URIC ACID [1]: 0.65 mg/dL; ABSOLUTE BASOPHIL [2]: 0 CELLS/uL; ABSOLUTE EOSINOPHIL [2]: 14.5 CELLS/uL; ABSOLUTE LYMPHOCYTE [2]: 7596.17 CELLS/uL; ABSOLUTE MONOCYTE [2]: 69.67 CELLS/uL; ABSOLUTE SEGMENTED NEUTROPHIL [2]: 503 CELLS/uL; BASOPHIL [2]: 0%; EOSINOPHIL [2]: 0.17%; ERYTHROCYTE COUNT [2]: 5.49 x10E6/uL; HEMATOCRIT [2]: 34.72%; HEMOGLOBIN [2]: 13.47 G/DL; LEUKOCYTE COUNT [2]: 8.18 x10E3/uL; LYMPHOCYTE [2]: 92.17%; MEAN CORPUSCULAR HEMOGLOBIN [2]: 24.57 pg; MEAN CORPUSCULAR HEMOGLOBIN CONCENTRATION [2]: 38.82 G/DL; MONOCYTE [2]: 1%; NEUTROPHIL [2]: 6.67%; NUCLEATED RED BLOOD CELLS [2]: 0 /100WBC; PLATELET COUNT [2]: 1141 x10E3/uL; ALANINE AMINOTRANSFERASE [2]: 48.33 u/L; ALBUMIN [2]: 4.07 G/DL; ALKALINE PHOSPHATASE [2]: 395.67 u/L; ASPARTATE AMINOTRANSFERASE [2]: 85.67 u/L; BLOOD UREA NITROGEN [2]: 15.83 mg/dL; CARBON DIOXIDE [2]: 31.33 mmol/L; CHLORIDE [2]: 100.83 MEQ/L; CREATINE PHOSPHOKINASE [2]: 248.33 u/L; CREATININE [2]: 0.2 mg/dL; GLUCOSE [2]: 135.67 mg/dL; LACTATE DEHYDROGENASE [2]: 141.33 u/L; LIPASE [2]: 9.5 u/L; PHOSPHORUS [2]: 10.73 mg/dL; POTASSIUM [2]: 6.07 MEQ/L; SODIUM [2]: 145.35 MEQ/L; TOTAL BILIRUBIN [2]: 0.22 mg/dL; TOTAL PROTEIN [2]: 6.12 G/DL; URIC ACID [2]: 0.63 mg/dL; ABSOLUTE BASOPHIL [3]: 0 CELLS/uL; ABSOLUTE EOSINOPHIL [3]: 40.67 CELLS/uL; ABSOLUTE LYMPHOCYTE [3]: 11136 CELLS/uL; ABSOLUTE MONOCYTE [3]: 119.67 CELLS/uL; ABSOLUTE SEGMENTED NEUTROPHIL [3]: 470.33 CELLS/uL; BASOPHIL [3]: 0%; EOSINOPHIL [3]: 0.33%; ERYTHROCYTE COUNT [3]: 5.47 x10E6/uL; HEMATOCRIT [3]: 34.33%; HEMOGLOBIN [3]: 13.4 G/DL; LEUKOCYTE COUNT [3]: 11.77 x10E3/uL; LYMPHOCYTE [3]: 94.67%; MEAN CORPUSCULAR HEMOGLOBIN [3]: 24.5 pg; MEAN CORPUSCULAR HEMOGLOBIN CONCENTRATION [3]: 39.03 G/DL; MONOCYTE [3]: 1%; NEUTROPHIL [3]: 4%; NUCLEATED RED BLOOD CELLS [3]: 0 /100WBC; PLATELET COUNT [3]: 1274 x10E3/uL; ALANINE AMINOTRANSFERASE [3]: 51.67 u/L; ALBUMIN [3]: 4.27 G/DL; ALKALINE PHOSPHATASE [3]: 390.33 u/L; ASPARTATE AMINOTRANSFERASE [3]: 80.67 u/L; BLOOD UREA NITROGEN [3]: 12.33 mg/dL; CARBON DIOXIDE [3]: 34.33 mmol/L; CHLORIDE [3]: 98.33 MEQ/L; CHOLESTEROL [3]: 78 mg/dL; CREATINE PHOSPHOKINASE [3]: 237.33 u/L; CREATININE [3]: 0.2 mg/dL; GLUCOSE [3]: 124.67 mg/dL; LACTATE DEHYDROGENASE [3]: 167.33 u/L; LIPASE [3]: 10 u/L; PHOSPHORUS [3]: 10.9 mg/dL; POTASSIUM [3]: 6.42 MEQ/L; SODIUM [3]: 144.2 MEQ/L; TOTAL BILIRUBIN [3]: 0.13 mg/dL; URIC ACID [3]: 0.87 mg/dL

Reference: ChEMBL document CHEMBL3885881, “DrugMatrix”
